The test system of test [1] is medium spiny neurons (MSNs) expressing mHTTex1. The test can be described thus: Acutely transfected rat brain slice culture assay. It is filed as cell-based. As for the experimental part:
Coronal brain slices (250 μm thick) containing both cortex and striatum were prepared from CD Sprague-Dawley rat pups at postnatal day 10 and placed into interface culture as previously described (Reinhart et al., 2011). A biolistic device (Helios Gene Gun; Bio-Rad) was then used to co-transfect the brain slices with YFP visual reporter and a 90 amino acid mutant huntingtin plasmid containing human htt exon-1 harboring a 73 CAG repeat to induce neurodegeneration of medium spiny neurons (MSNs). mHTTex1 expression induced progressive neurodegeneration of medium spiny neurons (MSNs) compared to controls over a period of 4 days.
MIND4 was added to the culture wells at the time of slice preparation and transfection to a final DMSO concentration of 0.1%; this concentration of DMSO was also added to all control wells. The positive control used for these experiments was the pan-caspase inhibitor Boc-D-FMK at 100 μM (Varna et al., 2007). YFP co-transfected MSNs were identified 4 days after incubation by their location within the striatum and by their characteristic dendritic arborization as previously described (Crittenden et al., 2010; Reinhart et al., 2011). […] Ordinate axis expresses the mean numbers of healthy YFP-positive MSNs per striatal region in each brain slice. […]

The subject of a further test is NRF2 responsive genes. Nature of the test: Microarray gene expression profiling in mutant HTT ST14A cells (Case III). The test is classed as cell-based, rat. The following applies: 5 μM 24 hours vs untreated. As for the experimental part:
RNA was extracted from HD mutant and wild type ST14A cells, differentiated for 24 hours and treated with vehicle (DMSO) or with 5 μM MIND4, using the RNeasy kit (Qiagen). Labeled cRNAs were prepared and hybridized to Affymetrix GeneChip Rat Genome 230 2.0 microarrays according to the manufacturer's instructions. Affymetrix CEL (intensity) files from hybridized arrays were imported into the Partek Genome Suite, Partek Incorporated, for biostatistical analysis. 2 CEL files were used for each experimental condition: wild type (WT) untreated, MIND4 treated (WT/MIND4), mutant (MTT) untreated, and mutant (MTT) MIND4-terated (MTT/MIND4). Two-way ANOVA was performed with interaction term included and three of the evaluated contrasts were of interest (Case I, II, and III). Gene lists were created for each of the three contrasts using the thresholds of absolute value of fold-change>1.5 and p-value with False Discovery Rate (FDR)<0.05. The lengths of the gene lists are for Case I (DP)-1765 genes, for Case II (TP)-1797 genes, and for Case III (MDDP)-268 genes. These three gene lists were imported into Ingenuity IPA for pathway and network analyses. These analyses provided Networks (graph structures of molecules connected by relationships in the IPA knowledgebase), Functions (lists of molecules grouped together due to their contribution to a biological function) and Canonical Pathways (molecules and relationships that participate in a biological pathway). Scores are assigned according to the probability that the genes from the user's list might appear in the function or pathway by chance (right-tailed Fisher's Exact Test).
To determine whether MIND4 might engage targets other than SIRT2, the gene expression changes in treated versus untreated mutant HTT and wild type ST14A cells were evaluated using an approach described previously (Luthi-Carter et al., 2010). RNA from rat embryonic striatal (ST14A) cells stably expressing a 546 amino acid HTT fragment containing either an expanded (128Q) or wild type (26Q) repeat was extracted following treatment with 5 μM MIND4 for 24 hours was extracted and run on Affymetrix rat microarrays (Affy GeneChip Rat Genome 230 2.0 array) as described above in General Methods. Two replicates for each of the experimental conditions were imported into Partek Genome Suite for biostatistical analysis. Genes showing significant differential expression were identified by ANOVA, for three contrasts, resulting in three gene-lists: mutant HD (MT) vs. wild type (WT)=Case I (Disease Phenotype); MT/MIND4 treated vs. WT=Case II (Treatment Phenotype), and MT/MIND4 treated vs. MT=Case III (Mutant Drug-Dependent Phenotype). These represented transcriptional alterations in MT compared to WT cells (Case I), in MT treated compared to WT cells (Case II), and in MT treated cells compared to untreated MT cells (Case III). The lists, Cases I-III, were then imported into Ingenuity Pathway Analysis (IPA—Ingenuity® Systems, www.ingenuity.com) for pathway and network analyses.

For another test, the system named is iBMM macrophages. Nature of the test: Transcriptional responses in LPS-induced iBMM macrophages (qRT-PCR). The test is classed as cell-based, mouse. The following applies: 24 hr. As for the experimental part:
Immortalized bone marrow derived mouse macrophages (iBMMs) and BV2 mouse microglia cell line were used in the present study. Both cell types were maintained in DMEM media supplemented with 10% FBS and antibiotic-antimycotic mix. Cells were seeded into 12 well plates at the density of 3×10^5 cells/well. Cells were treated with the indicated concentrations of MIND4-17 compounds for 24 hr. Cells were then stimulated with 10 ng/ml LPS (E. coli, Sigma) for 2 hr. Total RNA was isolated using ZR Miniprep kit (Zymo Research). […] of total RNA was used to prepare cDNA. Gene expression was analyzed using VeriQuest SYBR green assay (Affymetrix) in Roche480 thermocycler. Primer sequences are as described above (see Example 9).

For `O=[N+]([O-])c1ccc(Sc2nnc(COc3ccccc3)n2-c2ccccc2)c2ncccc12` [MIND4, 5-nitro-8-{[5-(phenoxymethyl)-4-phenyl-4H-1,2,4-triazol-3-yl]thio}quinoline], the “Neuroprotection relative to Boc-D-FMK at 100 μM” value in test [1] (10 μM) is “comparable to the efficacy of a reference compound”. Moreover, in test [1] (concentration-dependent, 4 days), the “Protection against mHTTex1-induced neurodegeneration of MSNs” value is on record as “significantly protected against mHTTex1-induced neurodegeneration”. Moreover, in the test on NRF2 responsive genes, the “Fold Increase, AOX1” value came out at 3.18 fold; the “Fold Increase, CAT” value is reported as 1.72 fold; the “Fold Increase, DNAJA4” value came to 1.53 fold; the “Fold Increase, DNAJB9” value was 1.63 fold. Also, in the test on NRF2 responsive genes, the “Fold Increase, FRA1” value was found to be 3.17 fold; the “Fold Increase, GCLC” value is 2.11 fold; the “Fold Increase, GCLM” value is 3.32 fold; the “Fold Increase, GSR” value worked out at 2.14 fold. Moreover, in the test on NRF2 responsive genes, the “Fold Increase, GSTA3” value is recorded as 20.09 fold; the “Fold Increase, GSTM5” value turned out to be 1.89 fold; the “Fold Increase, GSTP1” value turned out to be 2.21 fold; the “Fold Increase, GSTT2/GSTT2B” value turned out to be 1.96 fold. In the test on NRF2 responsive genes, the “Fold Increase, HERPUD1” value was 1.55 fold; the “Fold Increase, HO-1” value is on record as 6.14 fold; the “Fold Increase, KEAP1” value was determined as 1.53 fold; the “Fold Increase, MAFF” value came to 1.75 fold. Further, in the test on NRF2 responsive genes, the “Fold Increase, MGST1” value is 1.84 fold; the “Fold Increase, MGST2” value was found to be 2.94 fold; the “Fold Increase, MRP4” value amounted to 3.37 fold; the “Fold Increase, NQO1” value is 7.34 fold. In addition, in the test on NRF2 responsive genes, the “Fold Increase, SQSTM1” value came to 1.82 fold and the “Fold Increase, TRXR1” value was determined as 3.31 fold.
`O=[N+]([O-])c1ccc(Sc2nnc(COc3ccccc3)n2-c2ccccc2)nc1` [MIND4-17]: in the test with iBMM macrophages, the “Expression of inflammatory factors TNFα, IL-6, IL-1β and MCP-1” value is given as “repressed expression of inflammatory factors”; the “Transcription of GCLM and NQO1” value was “increased transcription of GCLM and NQO1”.

These data come from patent publication US9737525B2, “Small molecule activators of NRF2 pathway” (The General Hospital Corporation, priority 2013, dated 2017).
